In patent US7186553B1, “Human derived immortalized liver cell line” (Takeda Pharmaceutical Company Limited, priority 1998, dated 2007):

Experiments:
CYP1A2 = experiment: Induction of expression of the CYP1A2 gene in OUMS-29 cells (RT-PCR); conditions: 1 day after addition, 3-MC 0 to 10000 nM, BP 0 to 50000 nM, corrected to beta-actin mRNA
Description: (§1) The expression of cytochrome P450 in the OUMS-29 culture can be analyzed by assessing the level of mRNA content by the commonly known RT-PCR method using DNA primers specific to different types of cytochrome P450. These primers can be prepared from the sequences of the respective types of cytochrome P450 available from the Gene Bank database. The accession numbers at the Gene Bank are K03191 for CYP1A1, M55053 for CYP1A2, J02625 for CYP2E1, J04449 for CYP3A4, J04813 for CYP3A5, and D00408 for CYP3A7. The individual primers used were
(§2) The OUMS-29 culture was cultured for 5 to 7 days; the cells becoming confluent were harvested, from which RNA was extracted using the RNAeasy kit (Quiagen). This RNA, along with the previously determined primers specific to the respective types of cytochrome P450, was subjected to reverse transcription from mRNA and PCR using an one-step PCR kit (Takara Shuzo), after which it was separated using agarose gel and visualized with ultraviolet rays in the presence of ethidium bromide.
(§3) The cultured cells were separated, from which RNA was extracted using the method described above and subjected to RT-PCR.
(§4) Regarding annealing conditions for the RT-PCR method, the annealing temperatures were 55° C. for CYP1A1, 65° C. for CYP1A2, and 55° C. for CYP3A, the cycle numbers being 28 to 36 cycles.
The cycle number for beta-actin, serving as a control, was 15 cycles. […]

CYP1A1 = experiment: Induction of expression of the CYP1A1 gene in OUMS-29 cells (RT-PCR); conditions: 1 day after addition, 3-MC 0 to 10000 nM, BP 0 to 50000 nM, PB 0 to 25 mM, corrected to beta-actin mRNA
Description: as §1, §2, §3, §4
The cycle number for beta-actin, serving as a control, was 15 cycles.
In this operation, an actin competitive RT-PCR kit (Takara Shuzo) was used to correct the total mRNA content in each sample with reference to the mRNA content of beta-actin, which is expressed to the same extent in all tissues.

[1] = molecular target: T1, NADPH cytochrome P450 reductase (Homo sapiens, UniProt P16435); experiment: Cytochrome P450 reductase activity of enzyme source of OUMS-29 origin (cytochrome C reduction); type: in vitro ADME; conditions: disrupted OUMS-29 cells, with NADPH; 1 unit = reducing 1 nanomol of cytochrome C per milligram of protein per minute
T1 construct: disrupted using an ultrasound generator; this suspension was used as the enzyme source; endogenous in cells; host or cells: OUMS-29 (SV40 T antigen-immortalized human fetal hepatocytes), sonicated cell suspension
T1 sequence (P16435 1-677): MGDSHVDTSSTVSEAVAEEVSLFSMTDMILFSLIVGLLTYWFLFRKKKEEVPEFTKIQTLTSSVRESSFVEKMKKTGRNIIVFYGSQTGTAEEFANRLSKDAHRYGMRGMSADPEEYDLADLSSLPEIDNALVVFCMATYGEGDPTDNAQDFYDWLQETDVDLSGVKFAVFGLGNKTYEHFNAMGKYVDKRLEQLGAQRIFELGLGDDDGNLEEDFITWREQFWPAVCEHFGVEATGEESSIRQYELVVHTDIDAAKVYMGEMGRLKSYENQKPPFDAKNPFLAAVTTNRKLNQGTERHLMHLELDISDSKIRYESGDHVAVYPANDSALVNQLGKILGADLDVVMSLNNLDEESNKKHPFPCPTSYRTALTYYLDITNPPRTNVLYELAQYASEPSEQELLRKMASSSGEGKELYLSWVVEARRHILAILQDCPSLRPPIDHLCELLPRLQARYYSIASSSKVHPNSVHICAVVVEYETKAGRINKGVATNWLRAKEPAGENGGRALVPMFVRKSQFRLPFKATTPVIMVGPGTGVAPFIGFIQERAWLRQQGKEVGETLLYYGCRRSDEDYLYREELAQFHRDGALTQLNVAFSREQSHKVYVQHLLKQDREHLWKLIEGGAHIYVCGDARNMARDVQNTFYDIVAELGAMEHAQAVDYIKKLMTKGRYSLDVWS
Method: Specifically, cytochrome P450 reductase activity was determined on the basis of cytochrome C reduction in the presence of NADPH (reduced nicotinamide adenine dinucleotide phosphate) and an enzyme source of OUMS-29 origin with cytochrome C as the substrate.

Compound	expression of CYP1A2 (mRNA, RT-PCR) (CYP1A2)	expression of CYP1A1 (mRNA, RT-PCR) (CYP1A1)	cytochrome C reduction (cytochrome P450 reductase activity) [1] [units]
Cc1ccc2cc3c(ccc4ccccc43)c3c2c1CC3 [3-methylcholanthrene]	enhanced	enhanced	
c1ccc2c(c1)c1cccc3ccc4cccc2c4c31 [benzpyrene]	enhanced	enhanced	
CCC1(c2ccccc2)C(=O)NC(=O)NC1=O [phenobarbitone]		enhanced	
cytochrome C			8
